Here are results for four compounds from US20200377561A1, “ANTIMICROBIAL PEPTIDES AND METHODS OF TREATING GRAM-NEGATIVE PATHOGEN INFECTIONS: POLAR AND NON-POLAR FACE ANALOGS” (THE REGENTS OF THE UNIVERSITY OF COLORADO, a body corporate, priority 2017, published 2020).

The subject of data set [1] is Acinetobacter baumannii NCTC 13420. It is filed as cell-based. The method, then:
(§1) Bacterial strains were acquired from the American Type Culture Collection (ATCC, Virginia, USA) and the National Collection of Type Cultures (NCTC, Public Health England, Salisbury, UK). Minimum Inhibitory Concentration (MIC) of peptides versus gram-negative strains-Acinetobacter baumannii NCTC 13420, and Pseudomonas aeruginosa ATCC 27853 and gram-positive strain Staphylococcus aureus ATCC 29213, were determined by broth microdilution as per the guidelines of the Clinical and Laboratory Standards Institute (“Methods for Dilution Antimicrobial Susceptibility Tests for Bacteria That Grow Aerobically”; Approved Standard-Ninth Edition. CLSI document M07-A9, 2012). Peptides were dissolved in sterile distilled water, which was also used as the drug-free vehicle control when determining peptide MICs. Prior to use in the MIC protocol, bacterial strains were grown on Mueller Hinton agar at 37° C. in an ambient atmosphere. […] A fixed inoculum of the test microorganism (5×10^5 cells/mL) is also added to the plate. The MIC is determined as the lowest concentration of compound that inhibits visible bacterial growth following incubation at 37° C. for 16-20 hours. A difference in MIC of two-fold between experimental replicates is considered to be within the normal variability of this protocol.

The subject of data set [2] is Pseudomonas aeruginosa ATCC 27853. The class given is cell-based. Here is the method: as §1
Data set [3] relates to Staphylococcus aureus ATCC 29213. It is filed as cell-based. Here is the method:
as §1

For data set [4], the system named is Human erythrocytes. The data set is described as follows: Haemolysis assay using human blood. The class given is cell-based. The method, then:
To determine the extent of haemolytic activity (the ability to lyse red blood cells) in test peptides, a haemolysis assay was conducted using human blood (BioIVT, West Sussex, UK). Human erythrocytes were exposed to a single fixed concentration or a range of concentrations as to determine the % haemolysis (fixed concentration) or the concentration at which 50% haemolysis occurred (HC50), respectively. Prior to the assay, whole human blood was repeatedly washed in phosphate buffered saline (PBS) under cooled conditions to remove the buffy coat, plasma and cell debris. Washed erythrocytes were diluted as to achieve 1×10^8 cells/mL in PBS. Prepared human erythrocyte samples were combined with peptide at a single fixed concentration of 128 μg/mL, or a range of concentrations (two-fold dilution series) from 1000-31.25 μg/mL. Positive and negative controls containing 2% (v/v) Triton X-100 and PBS alone, respectively, were also prepared. Samples were incubated at 37° C. for 1 hour and then centrifuged to collect intact erythrocytes. Haemoglobin release was determined by recording the optical density of the supernatant at 540 nm. Optical density values were transformed to a percentage of the positive control. Results were recorded as a percentage haemolysis at 128 μg/mL, or by plotting the percentage haemolysis versus concentration and extrapolating the HC50 using linear regression analysis (Table 2 above)
The therapeutic index is a widely-accepted parameter to represent the specificity of antimicrobial peptides for prokaryotic versus eukaryotic cells. It is calculated by the ratio of hemolytic activity and antimicrobial activity (MIC) (Table 2 above); thus, larger values of therapeutic index indicate greater specificity for prokaryotic cells. With the peptides used in this study the inventors used the HC50/MIC ratio value to calculate the therapeutic index.

The nature of data set [5]: Peptide hydrophobicity by RP-HPLC retention. The class given is physicochemical. The conditions noted are these: Zorbax SB-300 C8, 0.25% B/min from 10% B, 0.3 ml/min, 30° C. The text has this: Retention behavior in RP-HPLC is an excellent method to represent overall peptide hydrophobicity. Retention times of peptides are highly sensitive to the conformational status of the peptides upon interaction with the hydrophobic environment of the column matrix^17,26. The non-polar faces of amphipathic alpha-helical and amphipathic cyclic beta-sheet peptides represent a preferred binding domain for interaction with the hydrophobic matrix of the reversed-phase column^27. In this study, the observed peptide hydrophobicity was determined by RP-HPLC retention time as described below and are relative hydrophobicities because they are dependent on the TFA concentration and organic solvent in the mobile phase, gradient rate, temperature, flow rate and the column used. Analytical Purification by Reversed-phase Chromatography: Analytical RP-HPLC: Column: Zorbax SB-300 C8 (150×2.1 mm ID; 5-μm particle size; 300 Å pore size). Conditions: linear AB gradient (0.25% B/min from 10% B) at a flow-rate of 0.3 ml/min, where Eluent A is 0.2% aq. TFA and Eluent B is 0.18% TFA in acetonitrile; 30° C.

The test system of data set [6] is Acinetobacter baumannii NCTC 13420. The class given is cell-based. The conditions noted are these: CA-MHB supplemented with 20% human serum (v/v). The method, then: Bacterial strains were acquired from the American Type Culture Collection (ATCC, Virginia, USA) and the National Collection of Type Cultures (NCTC, Public Health England, Salisbury, UK). Minimum Inhibitory Concentration (MIC) of peptides versus gram-negative strains-Acinetobacter baumannii NCTC 13420, and Pseudomonas aeruginosa ATCC 27853 and gram-positive strain Staphylococcus aureus ATCC 29213, were determined by broth microdilution as per the guidelines of the Clinical and Laboratory Standards Institute (“Methods for Dilution Antimicrobial Susceptibility Tests for Bacteria That Grow Aerobically”; Approved Standard-Ninth Edition. CLSI document M07-A9, 2012). Peptides were dissolved in sterile distilled water, which was also used as the drug-free vehicle control when determining peptide MICs. Prior to use in the MIC protocol, bacterial strains were grown on Mueller Hinton agar at 37° C. in an ambient atmosphere. […] A fixed inoculum of the test microorganism (5×10^5 cells/mL) is also added to the plate. The MIC is determined as the lowest concentration of compound that inhibits visible bacterial growth following incubation at 37° C. for 16-20 hours. A difference in MIC of two-fold between experimental replicates is considered to be within the normal variability of this protocol. […]

[7] abbreviates: cation-adjusted Mueller Hinton broth, 37° C., 16-20 hours.
Setting [8] is: human erythrocytes, 37° C., 1 hour.

Each structure is given as a SMILES string. Read-outs that look alike come from different tables or passages of the source. Peptide text beside a SMILES is read from it.

For the compound `CC(=O)N[C@H](CCCCN)C(=O)N[C@H](CC(C)C)C(=O)N[C@H](CCCCN)C(=O)N[C@H](CCCCN)C(=O)N[C@H](CC(C)C)C(=O)N[C@H](CC(C)C)C(=O)N[C@H](CCCCN)C(=O)N[C@H](CCCCN)C(=O)N[C@H](CC(C)C)C(=O)N[C@H](CO)C(=O)N[C@H](CO)C(=O)N[C@H](C)C(=O)N[C@H](CCCCN)C(=O)N[C@H](CO)C(=O)N[C@H](CO)C(=O)N[C@H](CCCCN)C(=O)N[C@H](CC(C)C)C(=O)N[C@H](CO)C(=O)N[C@@H](C(=O)N[C@H](CC(C)C)C(=O)N[C@H](CC(C)C)C(=O)N[C@H](CCCCN)C(=O)N[C@H](CCCCN)C(=O)N[C@H](CC(C)C)C(=O)N[C@H](CCCCN)C(=O)N[C@H](CCCCN)C(N)=O)[C@H](C)O` [compound 3] (HELM PEPTIDE1{[ac].[dK].[dL].[dK].[dK].[dL].[dL].[dK].[dK].[dL].[dS].[dS].[dA].[dK].[dS].[dS].[dK].[dL].[dS].[dT].[dL].[dL].[dK].[dK].[dL].[dK].[dK].[am]}$$$$V2.0), the “Antimicrobial Activity MIC A. baumannii NCTC13420” value in data set [1] (NCTC 13420) amounted to 2 µg/mL. Further, the “P. aeruginosa ATCC27853 MIC” value in data set [2] (ATCC 27853) was determined as 4 µg/mL. Also, in data set [3] (ATCC 29213), the “S. Aureus ATCC22213 MIC” value was 64 µg/mL. Further, in data set [4] (red cells of human, 1 h), the “Haemolysis HC50” value is greater than 2000 µg/mL. The “tR (relative hydrophobicity by RP-HPLC)” value in data set [5] turned out to be 87.37 min.

Take `CC(=O)N[C@H](CCCCN)C(=O)N[C@H](CC(C)C)C(=O)N[C@H](CCCCN)C(=O)N[C@H](CCCCN)C(=O)N[C@H](CC(C)C)C(=O)N[C@H](CC(C)C)C(=O)N[C@H](CCCCN)C(=O)N[C@H](CCCCN)C(=O)N[C@H](CC(C)C)C(=O)N[C@H](CCCCN)C(=O)N[C@H](CO)C(=O)N[C@H](C)C(=O)N[C@H](CCCCN)C(=O)N[C@H](CO)C(=O)N[C@H](CO)C(=O)N[C@H](CCCCN)C(=O)N[C@H](CC(C)C)C(=O)N[C@H](CO)C(=O)N[C@@H](C(=O)N[C@H](CC(C)C)C(=O)N[C@H](CC(C)C)C(=O)N[C@H](CO)C(=O)N[C@H](CCCCN)C(=O)N[C@H](CC(C)C)C(=O)N[C@H](CCCCN)C(=O)N[C@H](CCCCN)C(N)=O)[C@H](C)O` [compound 6] (HELM PEPTIDE1{[ac].[dK].[dL].[dK].[dK].[dL].[dL].[dK].[dK].[dL].[dK].[dS].[dA].[dK].[dS].[dS].[dK].[dL].[dS].[dT].[dL].[dL].[dS].[dK].[dL].[dK].[dK].[am]}$$$$V2.0): the “Antimicrobial Activity MIC A. baumannii NCTC13420” value in data set [1] (NCTC 13420) was 2 µg/mL. Besides, the “P. aeruginosa ATCC27853 MIC” value in data set [2] (ATCC 27853) is 2 µg/mL. Besides, in data set [3] (ATCC 29213), the “S. Aureus ATCC22213 MIC” value came to 128 µg/mL. For the same compound, the “Haemolysis HC50” value in data set [4] (red cells of human, 1 h) is greater than 2000 µg/mL.

Consider `CC(=O)N[C@H](CCCCN)C(=O)N[C@H](CC(C)C)C(=O)N[C@H](CCCCN)C(=O)N[C@H](CCCCN)C(=O)N[C@H](CC(C)C)C(=O)N[C@H](CC(C)C)C(=O)N[C@H](CCCCN)C(=O)N[C@H](CCCCN)C(=O)N[C@H](CC(C)C)C(=O)N[C@H](CO)C(=O)N[C@H](CO)C(=O)N[C@H](C)C(=O)N[C@H](CCCCN)C(=O)N[C@H](CO)C(=O)N[C@H](CO)C(=O)N[C@H](CCCCN)C(=O)N[C@H](CC(C)C)C(=O)N[C@H](CO)C(=O)N[C@H](CO)C(=O)N[C@H](CC(C)C)C(=O)N[C@H](CC(C)C)C(=O)N[C@H](CCCCN)C(=O)N[C@H](CCCCN)C(=O)N[C@H](CC(C)C)C(=O)N[C@H](CCCCN)C(=O)N[C@H](CCCCN)C(N)=O` [compound 24] (HELM PEPTIDE1{[ac].[dK].[dL].[dK].[dK].[dL].[dL].[dK].[dK].[dL].[dS].[dS].[dA].[dK].[dS].[dS].[dK].[dL].[dS].[dS].[dL].[dL].[dK].[dK].[dL].[dK].[dK].[am]}$$$$V2.0), for which the “Antimicrobial Activity MIC A. baumannii NCTC13420” value in data set [1] (setting [7]) was 1 µg/mL. Also, the “P. aeruginosa ATCC27853 MIC” value in data set [2] (setting [7]) was determined as 2 µg/mL. The “S. Aureus ATCC22213 MIC” value in data set [3] (setting [7]) is 64 µg/mL. For the same compound, in data set [6], the “Antimicrobial Activity MIC A. baumannii NCTC13420 plus 20% SERUM” value came out at 2 µg/mL. Also, in data set [4] (setting [8]), the “Haemolysis HC50” value was greater than 2000 µg/mL.

With `CC(=O)N[C@H](C)C(=O)N[C@H](CC(C)C)C(=O)N[C@H](CCCCN)C(=O)N[C@H](CCCCN)C(=O)N[C@H](CC(C)C)C(=O)N[C@H](CC(C)C)C(=O)N[C@H](CCCCN)C(=O)N[C@H](CCCCN)C(=O)N[C@H](CC(C)C)C(=O)N[C@H](CO)C(=O)N[C@H](CO)C(=O)N[C@H](C)C(=O)N[C@H](CCCCN)C(=O)N[C@H](CO)C(=O)N[C@H](CO)C(=O)N[C@H](CCCCN)C(=O)N[C@H](CC(C)C)C(=O)N[C@H](CO)C(=O)N[C@H](CO)C(=O)N[C@H](CC(C)C)C(=O)N[C@H](CC(C)C)C(=O)N[C@H](CCCCN)C(=O)N[C@H](CCCCN)C(=O)N[C@H](CC(C)C)C(=O)N[C@H](CCCCN)C(=O)N[C@H](CCCCN)C(N)=O` [compound 25] (HELM PEPTIDE1{[ac].[dA].[dL].[dK].[dK].[dL].[dL].[dK].[dK].[dL].[dS].[dS].[dA].[dK].[dS].[dS].[dK].[dL].[dS].[dS].[dL].[dL].[dK].[dK].[dL].[dK].[dK].[am]}$$$$V2.0), the “Antimicrobial Activity MIC A. baumannii NCTC13420” value in data set [1] (setting [7]) was found to be 2 µg/mL. The “P. aeruginosa ATCC27853 MIC” value in data set [2] (setting [7]) was found to be 4 µg/mL. Further, in data set [3] (setting [7]), the “S. Aureus ATCC22213 MIC” value is 128 µg/mL. Moreover, in data set [6], the “Antimicrobial Activity MIC A. baumannii NCTC13420 plus 20% SERUM” value was 4 µg/mL. Besides, the “Haemolysis HC50” value in data set [4] (setting [8]) was greater than 2000 µg/mL.
